Laboratory results from patent US20220117938A1, “COMBINATON THERAPY WITH A DON PRODRUG AND AN IMMUNE CHECKPOINT INHIBITOR” (DRACEN PHARMACEUTICALS, INC., priority 2019, published 2022).

Test system: MC-38 tumors
Experiment: Anti-tumor efficacy of Compound 1 in the subcutaneous MC-38 model: schedule comparison (Example 3)
Assay type: in vivo, Mus musculus
Conditions: for MST: endpoint tumor volume 2000 mm^3
Description: Female C57BL/6 mice were inoculated subcutaneously at right flank with MC-38 cells for tumor development. Six days after tumor inoculation, 64 mice with tumor size ranging from 50-100 mm^3 (average tumor size 71 mm^3) were selected and assigned into 8 groups using stratified randomization with 8 mice per group based upon their tumor volumes. The treatments were started from the day of randomization (defined as D0), Group 1 was treated with Vehicle (Tween 80:Ethanol:Saline—5:5:90 v/v/v), S.C. QD*20 days, Group 2 was treated with Compound 1 at 1 mpk S.C. QD*28 days, Group 3 was treated with Compound 1 at 0.5 mpk S.C. QD*28 days, Group 4 was treated with Compound 1 at 1.4 mpk S.C. 5-days ON 2-days OFF×4 cycles, Group 5 was treated with Compound 1 at 0.7 mpk S.C. 5-days ON 2-days OFF×4 cycles, Group 6 was treated with Compound 1 at 3 mpk qd×5, followed by 1 mpk qd×23, S.C. QD, Group 7 was treated with Compound 1 at 1.5 mpk qd×5, followed by 0.5 mpk qd×23, S.C. QD and Group 8 was treated with Compound 1 at 1.4 mpk 10-days ON 4-days OFF×2 cycles, S.C.
Species: Mus musculus; Strain: C57BL/6; Age: 6-8 weeks; Sex: female; Body weight (at treatment start): 16-20 g.
The MC-38 tumor cells were maintained in vitro as a monolayer culture in DMEM medium supplemented with 10% heat inactivated fetal bovine serum and 100 μg/mL penicillin streptomycin at 37° C. in an atmosphere of 5% CO2 in air. The tumor cells were routinely subcultured twice weekly by trypsin-EDTA treatment. The cells growing to a confluency around 70%-80% were harvested and counted for tumor inoculation. The cultured MC-38 were harvested, re-suspended in base medium at a density of 1×10^7 cells/mL with viability>90%. Each mouse was inoculated subcutaneously at the right flank with 1×10^6 cells in 0.1 ml base medium for tumor development.
The treatments were started on day 6 after tumor inoculation when the tumor size reached 50-100 mm^3 (average tumor size 71 mm^3). Each group consisted of 8 tumor-bearing mice. The testing article was administrated to the mice at a dosing volume of 10 mL/Kg according to the predetermined regimen as shown in Table 3-1.
Tumor sizes were measured three times a week in two dimensions using a caliper, and the volume expressed in mm^3 using the formula: V=0.5 a×b^2 where a and b are the long and short diameters of the tumor, respectively. The tumor sizes were then used for the calculations of both tumor growth inhibition (TGI) and T/C values.
TGI is calculated for each group using the formula: […]
TVTreatment_DayN is the average tumor volume of a treatment group on a given day, TVTreatment_Day0 is the average tumor volume of the treatment group on the first day of treatment, TVVehicle_DayN is the average tumor volume of the vehicle control group on a given day, and TVVehicle_Day0 is the average tumor volume of the vehicle group on the first day of treatment.
The T/C value (in percent) is an indication of antitumor effectiveness, T/C (%)=RTVTreatment/RTVControl×100% (RTVTreatment: the mean RTV of the treatment group; RTVControl: the mean RTV of the vehicle treated group). RTV (relative tumor volume)=TVDayN/TVDay0. TVDayN and TVDay0 is the tumor volume on day N and Day 0 respectively. T/C (%)≤42% is considered as significant antitumor activity and <10% is considered as highly significant antitumor activity by the National Cancer Institute criteria.
Relative change of body weight (RCBW) of each mouse was calculated according to the following formula: […]
Animal survival curve: When an individual animal reached to the termination endpoint (TV>2000 mm^3), the mouse was euthanized. The time from treatment initiation to the termination was deemed as its survival time. Survival curve was plotted by Kaplan-Meier method. Median survival time (MST) was calculated for each group. Increase of life span (ILS) was calculated according to the following formula: […]
ILS (%)>25% is considered as a biologically significant survival benefit. […]

[1] = 0.7 mpk S.C. 5-days ON 2-days OFF
[2] = 1.4 mpk days ON 2-days OFF x 4 cycles
[3] = 1.5 mpk qdx5, followed by 0.5 mpk qdx23
[4] = 3 mpk qdx5, followed by 1 mpk qdx23
[5] = Day 13, 0.7 mpk S.C. 5-days ON 2-days OFF
[6] = Day 13, 1.4 mpk 10-days ON 4-days OFF
[7] = Day 13, 1.4 mpk days ON 2-days OFF x 4 cycles
[8] = Day 13, 1.5 mpk qdx5, followed by 0.5 mpk qdx23
[9] = Day 13, 3 mpk qdx5, followed by 1 mpk qdx23

## CC(=O)N[C@@H](Cc1c[nH]c2ccccc12)C(=O)N[C@@H](CCC(=O)C=[N+]=[N-])C(=O)OC(C)C [Compound 1, Isopropyl (S)-2-((S)-2-acetamido-3-(1H-indol-3-yl)propanamido)-6-diazo-5-oxohexanoate]
0.5 mpk QD*28 days
  ILS: 126%
  RTV at day 13: 0 ± 0
  MST: 43 days
[1]
  ILS: 208%
  RTV at day 13: 0 ± 0
  MST: 58.5 days
1 mpk QD*28 days
  ILS: 126%
  RTV at day 13: 0 ± 0
  MST: 43 days
1.4 mpk 10-days ON 4-days OFF
  ILS: 121%
  RTV at day 13: 0 ± 0
  MST: 42 days
[2]
  ILS: 153%
  RTV at day 13: 0 ± 0
  MST: 48 days
[3]
  ILS: 121%
  RTV at day 13: 0 ± 0
  MST: 42 days
[4]
  ILS: 134%
  RTV at day 13: 0 ± 0
  MST: 44.5 days
Day 11, Group 2: 1 mg/kg qdx28, sc
  Tumor volume (Mean ± SEM): 15 ± 3 mm^3
Day 11, Group 3: 0.5 mg/kg qdx28, sc
  Tumor volume (Mean ± SEM): 29 ± 3 mm^3
Day 11, Group 4: 1.4 mg/kg 5-days ON 2-days OFF x 4 cycles, sc
  Tumor volume (Mean ± SEM): 14 ± 2 mm^3
Day 11, Group 5: 0.7 mg/kg 5-days ON 2-days OFF x 4 cycles, sc
  Tumor volume (Mean ± SEM): 20 ± 4 mm^3
Day 11, Group 6: 3 mpk qdx5 followed by 1 mpk qdx23, sc
  Tumor volume (Mean ± SEM): 24 ± 2 mm^3
Day 11, Group 7: 1.5 mpk qdx5 followed by 0.5 mpk qdx23, sc
  Tumor volume (Mean ± SEM): 21 ± 2 mm^3
Day 11, Group 8: 1.4 mg/kg 10-days ON 4-days OFF x 2 cycles, sc
  Tumor volume (Mean ± SEM): 28 ± 4 mm^3
Day 13, 0.5 mpk QD*28 days
  T/C: 0%
  TGI: 103.48%
[5]
  T/C: 0%
  TGI: 104.42%
Day 13, 1 mpk QD*28 days
  T/C: 0%
  TGI: 104.87%
[6]
  T/C: 0%
  TGI: 104.10%
[7]
  T/C: 0%
  TGI: 104.49%
[8]
  T/C: 0%
  TGI: 104.24%
[9]
  T/C: 0%
  TGI: 104.29%
Day 13, Group 2: 1 mg/kg qdx28, sc, 1 mg/kg
  Tumor volume (Mean ± SEM): 5 ± 2 mm^3
Day 13, Group 3: 0.5 mg/kg qdx28, sc, 0.5 mg/kg
  Tumor volume (Mean ± SEM): 24 ± 2 mm^3
Day 13, Group 4: 1.4 mg/kg 5-days ON 2-days OFF x 4 cycles, sc, 1.4 mg/kg
  Tumor volume (Mean ± SEM): 11 ± 3 mm^3
Day 13, Group 5: 0.7 mg/kg 5-days ON 2-days OFF x 4 cycles, sc, 0.7 mg/kg
  Tumor volume (Mean ± SEM): 13 ± 4 mm^3
Day 13, Group 6: 3 mpk qdx5 followed by 1 mpk qdx23, sc
  Tumor volume (Mean ± SEM): 14 ± 3 mm^3
Day 13, Group 7: 1.5 mpk qdx5 followed by 0.5 mpk qdx23, sc
  Tumor volume (Mean ± SEM): 15 ± 3 mm^3
Day 13, Group 8: 1.4 mg/kg 10-days ON 4-days OFF x 2 cycles, sc, 1.4 mg/kg
  Tumor volume (Mean ± SEM): 17 ± 4 mm^3
Day 15, Group 2: 1 mg/kg qdx28, sc
  Tumor volume (Mean ± SEM): 1 ± 1 mm^3
Day 15, Group 3: 0.5 mg/kg qdx28, sc
  Tumor volume (Mean ± SEM): 17 ± 3 mm^3
Day 15, Group 4: 1.4 mg/kg 5-days ON 2-days OFF x 4 cycles, sc
  Tumor volume (Mean ± SEM): 2 ± 1 mm^3
Day 15, Group 5: 0.7 mg/kg 5-days ON 2-days OFF x 4 cycles, sc
  Tumor volume (Mean ± SEM): 6 ± 3 mm^3
Day 15, Group 6: 3 mpk qdx5 followed by 1 mpk qdx23, sc
  Tumor volume (Mean ± SEM): 6 ± 2 mm^3
Day 15, Group 7: 1.5 mpk qdx5 followed by 0.5 mpk qdx23, sc
  Tumor volume (Mean ± SEM): 9 ± 2 mm^3
Day 15, Group 8: 1.4 mg/kg 10-days ON 4-days OFF x 2 cycles, sc
  Tumor volume (Mean ± SEM): 14 ± 3 mm^3
Day 18, Group 2: 1 mg/kg qdx28, sc
  Tumor volume (Mean ± SEM): 1 ± 0 mm^3
Day 18, Group 3: 0.5 mg/kg qdx28, sc
  Tumor volume (Mean ± SEM): 10 ± 2 mm^3
Day 18, Group 4: 1.4 mg/kg 5-days ON 2-days OFF x 4 cycles, sc
  Tumor volume (Mean ± SEM): 0 ± 0 mm^3
Day 18, Group 5: 0.7 mg/kg 5-days ON 2-days OFF x 4 cycles, sc
  Tumor volume (Mean ± SEM): 3 ± 1 mm^3
Day 18, Group 6: 3 mpk qdx5 followed by 1 mpk qdx23, sc
  Tumor volume (Mean ± SEM): 7 ± 3 mm^3
Day 18, Group 7: 1.5 mpk qdx5 followed by 0.5 mpk qdx23, sc
  Tumor volume (Mean ± SEM): 8 ± 2 mm^3
Day 18, Group 8: 1.4 mg/kg 10-days ON 4-days OFF x 2 cycles, sc
  Tumor volume (Mean ± SEM): 8 ± 3 mm^3
Day 20, Group 2: 1 mg/kg qdx28, sc
  Tumor volume (Mean ± SEM): 1 ± 0 mm^3
